In patent US4764617A, “Quinaldinamide derivatives” (Nippon Chemiphar Co., Ltd., priority 1986, dated 1988):
Structures can show the parent of a compound that is named as a salt.

Legend:
[1] = system: anemic decerebrated rigidity; assay: Effect on anemic decerebrated rigidity (rigidity relieving effect, EMG of forelimb M. triceps brachii); type: in vivo, rat (Wister male rats); conditions: rat; for inhibition in vivo at 3 mg/kg: iv, 10 min, 3 mg/kg through the femoral vein, 10 minutes after administration, * fumarate, ** oxalate, read-out: Relieving Rate (suppression rate of EMG)
Procedure: The experiment was performed using specimen of anemic decerebrated rigidity produced in rats according to the method of Fukuda, H., Ito, T., Hashimoto, S., and Kudo, Y.; Japan, J., Pharmacol., 24, 810 (1974). Wister male rats (body weight: 270 to 350 g) were held on their backs and incised at their cervices under etherization. After the trachea and common carotid arteries were exposed, the trachea was cannulated and the bilateral common carotid arteries and esophagus were then double-[…] cut. Subsequently, its occipital bone was exposed through which a circular hole was bored to double-ligate the centrally extending basilar artery. As each rat started coming out of anesthetization, its front limbs became rigid. Measurement was conducted by recording electromyographic (EMG) response from the muscle of the forelimb (M. triceps brachii) of the rat in the rigid state. The EMG pulses were converted to accumulated values every 10 seconds and recorded as a histogram on a recorder. The effect of each test compound on the rigidity was evaluated in terms of the suppression rate. This rate was calculated first by determining the area (see FIG. 1) of a decreased EMG pulse part on the histrograpm upon passage of 10 minutes after administration of a physiological saline solution of each test compound (3 mg/kg) through the femoral vein and then in accordance with the following equation: Suppression rate (%)=(a/A)×100 wherein a means an EMG pulse area decreased as a result of the administration of the test compound; and A means an EMG pulse area observed when no test compound was administered (control).

[2] = Acute toxicity (LD50, up-and-down method); conditions: in vivo; iv, tail vein, ddN male mouse; * fumarate, ** oxalate
Procedure: LD50 was determined by a known up-and-down method using ddN male mouse. The test compound was dissolved in a physiological saline solution, and the resulting solution was administered into the mouse through the tail vein.

[3] = system: glutamic acid at neuromuscular junctions of crayfish (opener muscles of the first walking legs); assay: Blocking effects on glutamic acid at neuromuscular junctions of crayfish (suppression of L-glutamic acid-induced depolarization); conditions: test compound 2×10^-4 M, 5-minute pretreatment; L-glutamic acid 10^-4 M; 200 µM
Procedure: The method of Ishida et al., [(J. Physiol., 298, 301-319 (1980)] and that of Shinozaki et al. [Comp. Biochem. Physiol., 70c, 49-58 (1981)] were followed. The opener muscles of the first walking legs of crayfish were used as experimental materials. The neuromuscular sample was held in a bath in which a physiologicl solution [NaCl (195 mM), CaCl2 (18 mM, KCl (5.4 mM), tris-maleate buffer (pH 7.5, 10 mM), and glucose (11 mM)] for use with the cray fish was perfused at room temperature and at a constant flow rate. A glass micro-electrode filled with a 3M-KCl solution was inserted in a central part of the muscle fiber to intracellularly record the changes in the potential of the muscular cell membrane.
The blocking effect of each test compound on glutamic acid was evaluated in terms of the suppression rate to depolarization which was induced by bath-applying L-glutamic acid (10^-4 M) in a 5-minute pretreatment with a solution of the test compound (2×10^-4 M).

O=C(NC(CCN1CCCC1)c1ccccc1)c1ccc2ccccc2n1 (centres unmarked) [Compound 4, N-(1-phenyl-3-pyrrolidinopropyl)quinaldinamide]
inhibition in vivo at 3 mg/kg [1]: 19.6%
LD50 [2]: 17.2 mg/kg

Cc1cccc(C(CCN2CCCCC2)NC(=O)c2ccc3ccccc3n2)c1 (centres unmarked) [Compound 8, N-[1-(3-methylphenyl)-3-piperidinopropyl]quinaldinamide]
inhibition in vivo at 3 mg/kg [1]: 11.7%
LD50 [2]: 25.4 mg/kg

CCN(CC)CCNC(=O)c1ccc2ccccc2n1 [Control Compound 1, N-(2-diethylaminoethyl)quiinaldinamide fumarate, reference compound]
inhibition in vivo at 3 mg/kg [1]: 1.2%
Glutamic Acid-Blocking Rate (suppression rate to depolarization) [3]: 30%

CCN(CC)CCNC(=O)c1ccc2ccccc2n1 [N-(2-diethylaminoethyl)quinaldinamide, reference compound]
rigidity relieving effect (in words) ([1]; in vivo): very weak rigidity relieving effect

O=C(NC(CCN1CCCCCC1)c1ccccc1)c1ccc2ccccc2n1 (centres unmarked) [Compound 6, N-[3-(perhydroazepin-1-yl)-1-phenylpropyl]quinaldinamide]
inhibition in vivo at 3 mg/kg [1]: 12.2%
LD50 [2]: 15.2 mg/kg

Cc1ccc(C(=O)C(C)CN2CCCCC2)cc1 (centres unmarked) [Control Compound 2, 2,4'-dimethyl-3-piperidinopropiophenone hydrochloride, reference compound]
inhibition in vivo at 3 mg/kg [1]: 4.8%

Cc1ccccc1C(CCN1CCCCC1)NC(=O)c1ccc2ccccc2n1 (centres unmarked) [Compound 7, N-[1-(2-methylphenyl)-3-piperidinopropyl]quinaldinamide]
inhibition in vivo at 3 mg/kg [1]: 11.2%
LD50 [2]: 23.5 mg/kg

CCN(CC)CCC(NC(=O)c1ccc2ccccc2n1)c1ccccc1 (centres unmarked) [Compound 2, N-(3-diethylamino-1-phenylpropyl)quinaldinamide]
inhibition in vivo at 3 mg/kg [1]: 24.6%
LD50 [2]: 18.9 mg/kg

O=C(NC(CCN1CCCCC1)c1ccccc1)c1ccc2ccccc2n1 (centres unmarked) [Compound 5, N-(1-phenyl-3-piperidinopropyl)quinaldinamide]
inhibition in vivo at 3 mg/kg [1]: 18.8%
Glutamic Acid-Blocking Rate (suppression rate to depolarization) [3]: 66%
LD50 [2]: 24.8 mg/kg
